Data: patent publication US20250136552A1, “ANTAGONISTS OF CAV 2.3” (LARIO THERAPEUTICS LIMITED, priority 2021, published 2025)

These compounds were tested against Cav2.3 (Homo sapiens, UniProt Q15878) (assay: Human Cav2.3 channel calcium-influx assay). Conditions: HEK-293 T-Rex/Kir2.1 cells with inducible Cav2.3e-β4-α2δ1; Fluo8 fluorescence; 8-point dose response from 30 μM; no pluronic acid; read-out: Cav2.3 (pIC50) (converted).
Chain of Cav2.3 (Q15878 1-2270 isoform Q15878-3): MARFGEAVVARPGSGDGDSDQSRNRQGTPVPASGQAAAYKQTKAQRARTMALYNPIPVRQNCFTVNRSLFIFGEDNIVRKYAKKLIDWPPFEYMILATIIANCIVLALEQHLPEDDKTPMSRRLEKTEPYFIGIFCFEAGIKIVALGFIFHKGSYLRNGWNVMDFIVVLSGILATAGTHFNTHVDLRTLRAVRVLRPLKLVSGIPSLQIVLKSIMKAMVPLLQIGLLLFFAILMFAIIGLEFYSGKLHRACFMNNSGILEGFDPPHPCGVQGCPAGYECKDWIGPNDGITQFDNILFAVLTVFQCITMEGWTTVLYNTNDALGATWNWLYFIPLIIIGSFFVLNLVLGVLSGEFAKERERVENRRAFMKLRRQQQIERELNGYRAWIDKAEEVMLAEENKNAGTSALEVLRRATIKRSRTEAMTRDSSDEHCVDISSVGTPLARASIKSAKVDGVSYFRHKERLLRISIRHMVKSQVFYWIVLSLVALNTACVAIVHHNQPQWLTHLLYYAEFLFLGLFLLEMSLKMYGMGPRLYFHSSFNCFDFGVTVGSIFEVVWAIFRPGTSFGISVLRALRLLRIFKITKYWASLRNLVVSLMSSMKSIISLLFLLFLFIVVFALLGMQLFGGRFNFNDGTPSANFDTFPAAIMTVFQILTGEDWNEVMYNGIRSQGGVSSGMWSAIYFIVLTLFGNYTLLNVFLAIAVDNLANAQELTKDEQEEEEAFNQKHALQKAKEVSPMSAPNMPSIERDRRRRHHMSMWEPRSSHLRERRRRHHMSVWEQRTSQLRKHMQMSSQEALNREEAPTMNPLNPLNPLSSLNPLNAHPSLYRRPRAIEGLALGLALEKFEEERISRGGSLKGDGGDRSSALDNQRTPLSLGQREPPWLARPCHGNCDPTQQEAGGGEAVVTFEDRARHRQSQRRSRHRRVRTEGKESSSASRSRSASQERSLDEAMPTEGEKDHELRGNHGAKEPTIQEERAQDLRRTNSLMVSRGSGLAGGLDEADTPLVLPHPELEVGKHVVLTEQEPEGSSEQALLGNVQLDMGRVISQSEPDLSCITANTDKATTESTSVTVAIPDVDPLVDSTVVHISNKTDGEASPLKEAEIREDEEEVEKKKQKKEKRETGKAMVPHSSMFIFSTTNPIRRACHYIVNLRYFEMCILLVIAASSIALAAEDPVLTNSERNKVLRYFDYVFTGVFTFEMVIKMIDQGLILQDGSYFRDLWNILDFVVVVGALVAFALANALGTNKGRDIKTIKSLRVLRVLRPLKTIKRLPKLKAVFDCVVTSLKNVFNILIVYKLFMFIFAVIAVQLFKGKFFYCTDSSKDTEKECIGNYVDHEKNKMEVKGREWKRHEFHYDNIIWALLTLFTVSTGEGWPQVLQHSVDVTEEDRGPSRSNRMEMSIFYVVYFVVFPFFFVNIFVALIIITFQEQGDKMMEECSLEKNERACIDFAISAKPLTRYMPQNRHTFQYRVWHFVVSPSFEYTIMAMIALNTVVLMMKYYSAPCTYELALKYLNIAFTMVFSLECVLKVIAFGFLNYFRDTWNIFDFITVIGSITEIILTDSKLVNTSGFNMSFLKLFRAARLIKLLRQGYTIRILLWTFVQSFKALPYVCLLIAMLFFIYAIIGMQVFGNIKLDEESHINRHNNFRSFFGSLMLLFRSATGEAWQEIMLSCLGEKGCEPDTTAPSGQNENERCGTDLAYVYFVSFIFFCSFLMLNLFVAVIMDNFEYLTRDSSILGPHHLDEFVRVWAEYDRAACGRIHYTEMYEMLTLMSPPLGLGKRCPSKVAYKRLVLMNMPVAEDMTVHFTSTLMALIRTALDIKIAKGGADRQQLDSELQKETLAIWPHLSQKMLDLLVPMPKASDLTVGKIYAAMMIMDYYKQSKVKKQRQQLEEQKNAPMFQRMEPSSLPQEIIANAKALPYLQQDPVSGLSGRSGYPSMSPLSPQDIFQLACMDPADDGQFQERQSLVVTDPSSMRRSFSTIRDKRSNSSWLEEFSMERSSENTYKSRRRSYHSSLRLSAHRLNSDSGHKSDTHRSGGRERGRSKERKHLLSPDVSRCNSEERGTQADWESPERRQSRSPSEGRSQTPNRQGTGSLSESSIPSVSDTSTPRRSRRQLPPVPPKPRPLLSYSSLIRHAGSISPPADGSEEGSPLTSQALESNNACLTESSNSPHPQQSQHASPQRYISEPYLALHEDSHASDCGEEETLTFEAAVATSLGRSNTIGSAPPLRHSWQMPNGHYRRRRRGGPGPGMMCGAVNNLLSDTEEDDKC
Assay type: cell-based
Protocol: HEK-293 T-Rex cells were transfected with pcDNA3.1-Kir2.1 to generate a stable cell line. After antibiotic selection, the obtained stable pools were analysed using FLIPR^TETRA(membrane potential assay), and a limiting dilution was performed and a HEK-293 T-Rex/Kir2.1 clone was selected. The clone was transfected with pcDNA3.1-Cav2.3e and pBud-Cav-β4-α2δ1 to generate a stable cell line where the Cav2.3e expression is inducible. After antibiotic selection, functional clone pool analysis and two successive limiting dilutions, the final clone underwent a qPCR analysis and a biophysical and pharmacological validation using patch-clamp.
A compound plate, containing 10 test compounds in eight-points dose response with n=4, was prepared. Test compounds dose response curves were prepared in automated fashion in 100% DMSO at CyBio Felix and starting from a stock solution in 100% DMSO; a defined volume was serially moved into destination wells pre-filled with the desired DMSO volume; stock solution concentration volumes were dependent on the final compounds concentrations to be tested and the final DMSO content used in the assay. For the assay test compounds dose response curves ranged from 30 μM and half log dilution with 0.3% final DMSO. In order to obtain the 8-points dose response curve all the concentrations were created by starting from a 10 mM DMSO stock solution and then moving 9.5 μL into a destination well pre-filled with 20.5 μL of 100% DMSO and repeating this step seven times. This initial step was done into 96 MTP plates, 10 compounds/plate. One 384 MTP was then reformatted to contain all the 10 compounds at 8 concentrations, quadruplicate data points. This so obtained 384 MTP compound plate served as source plate in a “mother to child” process with a CyBi®-Well dispenser in which 0.7 μL of compounds were moved into a destination plate pre-filled with 57.6 μL of Tyrode's buffer 0 mM K^+, thus obtaining 4× concentrated compounds solution. In columns 1-2 and 23-24 the control wells were added. Both “source” compound plate and “destination” compound plate were barcoded and a relationship between the two plates was thus generated.
The day before the experiment, cells were detached by gentle wash with DPBS, followed by 5 min incubation at 37° C. with Trypsin solution. Detached cells were diluted with OptiMEM+Doxycycline at 0.2 μg/mL, counted and plated in Poly-D-Lysine coated black/clear bottom (15.000 c/well in 20 μl/well) by the use of a MATRIX WellMate dispenser. Plates were placed into a humidified incubator at 37° C. with 5% CO2 until the experimental day. 24 h after seeding 10 μL/well of 1.5× Fluo8 NW dye solution prepared in Tyrode's buffer 0 mM K^+ were added on top of the seeding medium. Cell plates were incubated for 40-60 min at RT in the dark. We then Injected off-line 10 μL/well of test compounds and controls 4× concentrated in Tyrode's Buffer 0 mM K+ with the CyBi®-Well instrument. Cell plates were incubated 3 minutes at RT. Finally, we injected 20 μL/well of 3× concentrated activator solution (K20-Na130-Ca2 buffer: 20 mM KCl, 130 mM NaCl, 2 mM CaCl2, 10 mM HEPES, 10 mM Glucose, final concentrations, prepared starting from “K0-Na150-Ca2” and “K150-Na0-Ca2” buffers) at FDSS7000EX instrument and read emitted fluorescence for 130 seconds.
Data analysis was performed with Genedata Screener® software and reported compounds activity as % effect in relation to the normalization standards. The Kinetic Response Value (KRV) is calculated as follows:
KRV=Maximal fluorescence recorded from second 5 to second 130 minus baseline fluorescence, computed as average from second 1 to second 2, of the kinetic trace. The KRV was normalized versus Neutral Controls and Inhibitor Controls in order to obtain the Activity[%] for each well. […] Therefore, the compound activity values were scaled (based on the two references) to a common range (two-point normalization). […]
`CCN([C@@H](C)c1ccc(C(F)(F)F)cc1)S(=O)(=O)c1ccc2c(c1)CCN(C(=O)C(C)C)C2` [Example 20, (S)-N-ethyl-2-isobutyryl-N-(1-(4-(trifluoromethyl)phenyl)ethyl)-1,2,3,4-tetrahydroisoquinoline-6-sulfonamide] was tested, and the IC50 was 1.58 µM.
With `CCN([C@H](C)c1ccccc1)S(=O)(=O)c1ccc2c(c1)CCN(C(=O)C1CC1)C2` [Example 27, (R)-2-(cyclopropanecarbonyl)-N-ethyl-N-(1-phenylethyl)-1,2,3,4-tetrahydroisoquinoline-6-sulfonamide] the IC50 was 3.63 µM.
Compound `C[C@@H](c1ccccc1)N(C)S(=O)(=O)c1ccc2c(c1)CN(C(=O)C1CC1)CC2` [Example 16, (S)-2-(cyclopropanecarbonyl)-N-methyl-N-(1-phenylethyl)-1,2,3,4-tetrahydroisoquinoline-7-sulfonamide] has an IC50 of 1.02 µM.
`CCN([C@@H](C)c1ccc(F)cc1)S(=O)(=O)c1ccc2c(n1)CCN(C(=O)C1CC1)C2` [Example 33, (S)-6-(cyclopropanecarbonyl)-N-ethyl-N-(1-(4-fluorophenyl)ethyl)-5,6,7,8-tetrahydro-1,6-naphthyridine-2-sulfonamide] showed an IC50 of 3.63 µM.
For `CC(C)N1Cc2ccc(S(=O)(=O)N(C)[C@@H](C)c3ccccc3)cc2CC1=O` [Example 39, (S)-2-isopropyl-N-methyl-3-oxo-N-(1-phenylethyl)-1,2,3,4-tetrahydroisoquinoline-6-sulfonamide], the IC50 was 11.7 µM.
Work on `CCN([C@@H](C)c1ccc(C(F)(F)F)cc1)S(=O)(=O)c1ccc2c(c1)CCN(C(=O)C1CC1)C2` [Example 21, (S)-2-(cyclopropanecarbonyl)-N-ethyl-N-(1-(4-(trifluoromethyl)phenyl)ethyl)-1,2,3,4-tetrahydroisoquinoline-6-sulfonamide] yielded an IC50 of 3.98 µM.
With `C[C@@H](c1ccccc1)N(C)S(=O)(=O)c1ccc2c(c1)CCN(C)C2=O` [Example 38, (S)-N,2-dimethyl-1-oxo-N-(1-phenylethyl)-1,2,3,4-tetrahydroisoquinoline-6-sulfonamide] the IC50 was 6.61 µM.
`CCN(C(c1ccc(F)cc1)C(F)(F)F)S(=O)(=O)c1ccc2c(c1)CN(C(=O)C(C)C)CC2` (stereo not drawn) [Example 5, N-ethyl-2-isobutyryl-N-(2,2,2-trifluoro-1-(4-fluorophenyl)ethyl)-1,2,3,4-tetrahydroisoquinoline-7-sulfonamide] showed an IC50 of 0.437 µM.
With `CCN([C@H](c1ccc(F)cc1)C(F)(F)F)S(=O)(=O)c1ccc2c(c1)CN(C(=O)C1CC1)CC2` [Example 48, (R)-2-(Cyclopropanecarbonyl)-N-ethyl-N-(2,2,2-trifluoro-1-(4-fluorophenyl)ethyl)-1,2,3,4-tetrahydroisoquinoline-7-sulfonamide] the IC50 was 0.427 µM.
Compound `CCN([C@@H](C)c1ccc(F)cc1)S(=O)(=O)c1cc(F)c2c(c1)CCN(C(=O)C1CC1)C2` [Example 22, (S)-2-(cyclopropanecarbonyl)-N-ethyl-8-fluoro-N-(1-(4-fluorophenyl)ethyl)-1,2,3,4-tetrahydroisoquinoline-6-sulfonamide] has an IC50 of 0.955 µM.
In the case of `CC(C)C(=O)N1CCc2ccc(S(=O)(=O)NCC(C)c3ccc(F)cc3)cc2C1` (single isomer, unassigned) [Example 17, N-(2-(4-fluorophenyl)propyl)-2-isobutyryl-1,2,3,4-tetrahydroisoquinoline-7-sulfonamide], the IC50 is reported as 6.17 µM.
`CCN([C@@H](c1ccc(F)cc1)C(F)(F)F)S(=O)(=O)c1ccc2c(c1)CN(C(=O)C(C)C)CC2` (stereo in doubt) [Example 7, N-ethyl-2-isobutyryl-N-(2,2,2-trifluoro-1-(4-fluorophenyl)ethyl)-1,2,3,4-tetrahydroisoquinoline-7-sulfonamide] showed an IC50 of 2 µM.
`CC(C)C(=O)N1CCc2ccc(S(=O)(=O)N(CCF)[C@@H](c3ccc(F)cc3)C(F)(F)F)cc2C1` [Example 50, (S)-N-(2-fluoroethyl)-2-isobutyryl-N-(2,2,2-trifluoro-1-(4-fluorophenyl)ethyl)-1,2,3,4-tetrahydroisoquinoline-7-sulfonamide] was tested, and the IC50 was 3.31 µM.
Compound `CCN(C(c1ccc(F)cc1)C(F)(F)F)S(=O)(=O)c1ccc2c(c1)CN(C1COC1)CC2` (stereo not drawn) [Example 45, N-ethyl-2-(oxetan-3-yl)-N-(2,2,2-trifluoro-1-(4-fluorophenyl)ethyl)-1,2,3,4-tetrahydroisoquinoline-7-sulfonamide] has an IC50 of 0.525 µM.
With `C[C@@H](c1ccccc1)N(C)S(=O)(=O)c1ccc2c(c1)CN(c1ccncc1)CC2` [Example 3, (S)-N-methyl-N-(1-phenylethyl)-2-(pyridin-4-yl)-1,2,3,4-tetrahydroisoquinoline-7-sulfonamide] the IC50 was 2.09 µM.
In the case of `CCN([C@@H](C)c1ccc(F)cc1)S(=O)(=O)c1ccc2c(c1)CN(C(=O)C1CC1)CC2` [Example 13, (S)-2-(cyclopropanecarbonyl)-N-ethyl-N-(1-(4-fluorophenyl)ethyl)-1,2,3,4-tetrahydroisoquinoline-7-sulfonamide], the IC50 is reported as 0.912 µM.
Work on `CCN([C@@H](C)c1ccccc1)S(=O)(=O)c1ccc2c(c1)CCN(C(=O)C(C)C)C2` [Example 25, (S)-N-ethyl-2-isobutyryl-N-(1-phenylethyl)-1,2,3,4-tetrahydroisoquinoline-6-sulfonamide] yielded an IC50 of 1.45 µM.
`CCN(C(c1ccc(F)cc1)C(F)(F)F)S(=O)(=O)c1ccc2c(c1)CN(C(=O)C1CCOCC1)CC2` (stereo not drawn) [Example 43, N-ethyl-2-(tetrahydro-2H-pyran-4-carbonyl)-N-(2,2,2-trifluoro-1-(4-fluorophenyl)ethyl)-1,2,3,4-tetrahydroisoquinoline-7-sulfonamide] was tested, and the IC50 was 0.589 µM.
`CC(C)C(=O)N1Cc2ccc(S(=O)(=O)N(C)[C@@H](C)c3ccccc3)cc2C1` [Example 40, (S)-2-isobutyryl-N-methyl-N-(1-phenylethyl)isoindoline-5-sulfonamide] was tested, and the IC50 was 2.88 µM.
`CCN([C@H](C)c1ccccc1)S(=O)(=O)c1ccc2c(c1)CCN(C(=O)C(C)C)C2` [Example 26, (R)-N-ethyl-2-isobutyryl-N-(1-phenylethyl)-1,2,3,4-tetrahydroisoquinoline-6-sulfonamide] showed an IC50 of 4.17 µM.

What follows are compounds tested against Cav2.3 dependent current in HEK-293 T-Rex/Kir2.1/Cav2.3e-β4-α2δ1 cells (Homo sapiens, UniProt Q15878) (assay: Whole-cell patch clamp assay (QPatch 16X)). Conditions: whole-cell voltage clamp, room temperature, inward current density; mean ± S.E; read-out: Cav2.3 (pIC50) (converted).
Chain of Cav2.3 dependent current in HEK-293 T-Rex/Kir2.1/Cav2.3e-β4-α2δ1 cells (Q15878 1-2270 isoform Q15878-3): as above
Assay type: cell-based
Protocol: HEK-293 T-Rex/Kir2.1/Cav2.3e-β4-α2δ1 cells were seeded 96 hours before experiment and doxycycline at 0.2 μg/mL was added 24 hours before experiment. Just before the experiments cells were washed twice with D-PBS w/o Ca2+/Mg2+ and gently detached from the flask with Detachin. Cells were then re-suspended in the suspension solution (25 mL EX-CELL ACF CHO medium; 0.25 mL of 100× Penicillin/Streptomycin) and placed on the Automated Patch-clamp platform (QPatch 16X).
Standard whole-cell voltage clamp experiments were performed at room temperature using the single hole technology and the following intracellular and extracellular solutions (ICS and ECS, respectively) were used. ICS (mM): CsF 60, CsCl 50, NaCl 10, EGTA 20, BAPTA 5, HEPES 10, NaGTP 0.3, MgATP 5 (pH 7.2; ECS (mM): NMDG-Cl 120, BaCl2 20, HEPES 10, EGTA 7 (pH 7.4). After establishment of the seal and the passage in the whole-cell configuration, the Cav2.3 dependent current was evoked by challenging the cells with the following voltage protocol: the plasma membrane was held at −80 mV then a 50 ms-long depolarizing pulse at 0 mV, followed by a 50 ms-long hyperpolarizing pulse at −100 mV were applied and finally the plasma membrane was held back to −80 mV. This voltage protocol was applied every 10 seconds. Cav2.3 dependent current was first measured in control condition (vehicle, 0.1% DMSO), in the presence of increasing concentration of the compound under investigation and finally SNX 482 was added to fully block any R-type Cav2.3 dependent current.
For data collection, the Sophion proprietary software was used while the analysis was performed off-line using Excel and GraphPad Prism. The inward current (Area Under Curve) measured during each depolarizing pulse was normalized to cell membrane capacitance (Cm) to obtain the average inward current density in each condition (control, compound under investigation and SNX 482). Then, the inhibitory effect of the compound under investigation was evaluated as % of the remaining inward current, normalized to the internal control. […] All data were expressed as mean±S.E
For `CCN([C@@H](C)c1ccc(C(F)(F)F)cc1)S(=O)(=O)c1ccc2c(c1)CCN(C(=O)C(C)C)C2` [Example 20, (S)-N-ethyl-2-isobutyryl-N-(1-(4-(trifluoromethyl)phenyl)ethyl)-1,2,3,4-tetrahydroisoquinoline-6-sulfonamide], the IC50 was 0.372 µM.
